Test results as given in ChEMBL document CHEMBL1151007, “Synthesis and in vitro cytotoxicity of (RS)-20-desethyl-20-substituted camptothecin analogues” (Bioorg Med Chem Lett, 1996).

Legend:
Type in all cases: functional, cell-based
[1] = tested on: DLD-1; test: In vitro cytotoxicity against DLD-1 human tumor cell lines.
[2] = tested on: KATO III stomach cancer cell line; test: In vitro cytotoxicity against KATO-III human tumor cell line.
[3] = tested on: L1210; test: In vitro cytotoxicity against L1210 mouse leukemia tumor cell line.
[4] = tested on: Caov-3 cell line; test: In vitro cytotoxicity against CAOV-3 human tumor cell line.
[5] = tested on: A 172; test: In vitro cytotoxicity against A172 human tumor cell lines.

SMILES | IC50 [1] [µM] | IC50 [2] [µM] | IC50 [3] [µM] | IC50 [4] [µM] | IC50 [5] [µM]
O=C(Nc1ccccc1)OCCC1(O)C(=O)OCc2c1cc1n(c2=O)Cc2cc3ccccc3nc2-1 (stereo not given) | 1.2 | 5.38 | 6.87 | 3.72 | 0.06
COCCOCOCCC1(O)C(=O)OCc2c1cc1n(c2=O)Cc2cc3ccccc3nc2-1 (stereo not given) | 15.1 | 53 | 4.97 | 1.92 | 4.04
O=C(Nc1ccccc1)OCC1(O)C(=O)OCc2c1cc1n(c2=O)Cc2cc3ccccc3nc2-1 (stereo not given) | 4.24 | 13.1 | 2.77 | 1.58 | 2.77
CC(C)NC(=O)OCC1(O)C(=O)OCc2c1cc1n(c2=O)Cc2cc3ccccc3nc2-1 (stereo not given) | 23.4 | 72.3 | 5.97 | 22.5 | 11.2
CC(C)NC(=O)OCCC1(O)C(=O)OCc2c1cc1n(c2=O)Cc2cc3ccccc3nc2-1 (stereo not given) | 11 | 46.5 | 9.41 | 1.42 | 5.25
CCOCOCCC1(O)C(=O)OCc2c1cc1n(c2=O)Cc2cc3ccccc3nc2-1 (stereo not given) | 1.07 | 19.3 | 1.42 | 1.85 | 1.37
COCC(=O)OCC1(O)C(=O)OCc2c1cc1n(c2=O)Cc2cc3ccccc3nc2-1 (stereo not given) | 47.1 | > 100 | 13.6 | 12.9 | 17.6
COCC(=O)OCCC1(O)C(=O)OCc2c1cc1n(c2=O)Cc2cc3ccccc3nc2-1 (stereo not given) | 31.8 | 3.05 | 24.5 | 6.39 | 6.99
COCCOCOCC1(O)C(=O)OCc2c1cc1n(c2=O)Cc2cc3ccccc3nc2-1 (stereo not given) | 25.8 | 83.5 | 22.2 | 6 | 4.38
CC(=O)OCC1(O)C(=O)OCc2c1cc1n(c2=O)Cc2cc3ccccc3nc2-1 (stereo not given) | 1.22 | 9.43 | 1.71 | 0.82 | 1.53
CC(=O)OCCC1(O)C(=O)OCc2c1cc1n(c2=O)Cc2cc3ccccc3nc2-1 (stereo not given) | 7.04 | 0.98 | 5.09 | 4.23 | 3.99
CCOCOCC1(O)C(=O)OCc2c1cc1n(c2=O)Cc2cc3ccccc3nc2-1 (stereo not given) | 17.1 | 40.7 | 3.4 | 17.6 | 11.1
COCOCC1(O)C(=O)OCc2c1cc1n(c2=O)Cc2cc3ccccc3nc2-1 (stereo not given) | 2.41 | 23.2 | 1.65 | 4 | 8.39
O=C1OCc2c(cc3n(c2=O)Cc2cc4ccccc4nc2-3)C1(O)CO (stereo not given) | 17.8 | 11.5 | 3.97 | 2.17 | 7.19
O=C1OCc2c(cc3n(c2=O)Cc2cc4ccccc4nc2-3)C1(O)CCO (stereo not given) | 2.5 | 9.72 | 6.31 | 6.31 | 4.47
